Each compound was assayed against T1, hFXR (Homo sapiens, UniProt Q96RI1) (assay: In Vitro FXR Assay (TK): TK-ECRE-luc reporter in transfected CV-1 cells). Conditions: 18 hrs, luminescence, maximum efficacy of <25% of the Fexarmine control classified as '+'.
T1 construct: expressed in transfected cells; host or cells: CV-1 cells
T1 sequence (Q96RI1 1-486): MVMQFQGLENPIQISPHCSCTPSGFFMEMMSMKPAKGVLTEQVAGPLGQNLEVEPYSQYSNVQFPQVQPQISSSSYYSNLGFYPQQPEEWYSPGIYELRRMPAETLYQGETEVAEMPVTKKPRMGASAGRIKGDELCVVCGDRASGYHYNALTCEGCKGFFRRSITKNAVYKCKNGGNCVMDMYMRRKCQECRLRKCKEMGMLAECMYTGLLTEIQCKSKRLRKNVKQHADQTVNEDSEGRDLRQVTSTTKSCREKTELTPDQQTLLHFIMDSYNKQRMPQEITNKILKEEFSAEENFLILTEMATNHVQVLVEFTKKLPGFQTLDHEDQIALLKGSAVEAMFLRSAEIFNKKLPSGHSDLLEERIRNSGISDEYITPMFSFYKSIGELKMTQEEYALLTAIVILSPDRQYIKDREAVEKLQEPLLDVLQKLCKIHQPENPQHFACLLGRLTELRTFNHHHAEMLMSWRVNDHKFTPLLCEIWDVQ
T1 sequence (P19793 1-462 partner): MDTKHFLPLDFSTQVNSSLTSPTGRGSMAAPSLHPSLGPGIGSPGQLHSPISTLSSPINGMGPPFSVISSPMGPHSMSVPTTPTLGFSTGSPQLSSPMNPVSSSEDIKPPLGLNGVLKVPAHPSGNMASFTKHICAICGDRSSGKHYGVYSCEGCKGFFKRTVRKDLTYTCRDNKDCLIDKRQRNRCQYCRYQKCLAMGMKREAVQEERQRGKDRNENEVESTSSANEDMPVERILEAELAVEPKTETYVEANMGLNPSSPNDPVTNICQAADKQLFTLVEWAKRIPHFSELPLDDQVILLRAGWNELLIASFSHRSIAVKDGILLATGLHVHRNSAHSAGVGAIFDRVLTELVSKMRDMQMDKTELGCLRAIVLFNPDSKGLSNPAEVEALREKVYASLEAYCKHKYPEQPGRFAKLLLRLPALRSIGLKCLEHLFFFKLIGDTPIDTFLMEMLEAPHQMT
Type: cell-based
Method in brief: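 Luciferase luminescence read-out from lysed CV-1 cells transiently co-expressing hFXR and hRXR with a TK-ECRE-luc reporter (pCMX-YFP co-transfected). Compound exposure lasted 18 h at 37 °C, 5% CO2, in medium containing charcoal super-stripped serum.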

Compound | EC50
COc1ccc(C23CCC(CN(c4cccc(-c5cnn(C6CC6)c5)c4)C(=O)[C@H]4CC[C@H](NC(=O)CO)CC4)(CC2)CC3)cc1C [Compound 26.09, trans-N-(3-(1-Cyclopropyl-1H-pyrazol-4-yl)phenyl)-4-(2-hydroxyacetamido)-N-((4-(4-methoxy-3-methylphenyl)bicyclo[2.2.2]octan-1-yl)methyl)cyclohexanecarboxamide] | ≤ 0.25 µM
COc1ccc([C@H]2CC[C@H](CN(c3cc(-c4coc(C5CC5)n4)ccn3)C(=O)[C@H]3CC[C@H](OC(=O)NCCO)CC3)CC2)nc1C [Compound 4.24, trans-4-((4-(2-Cyclopropyloxazol-4-yl)pyridine-2-yl)((trans-4-(5-methoxy-6-methylpyridin-2-yl)cyclohexyl)methyl)carbamoyl)cyclohexyl (2-hydroxyethyl)carbamate] | ≤ 0.25 µM
CN(C)c1ccc([C@H]2CC[C@H](CN(c3cccc(-c4coc(C5CC5)n4)c3)C(=O)[C@H]3CC[C@H](OC(=O)NCCO)CC3)CC2)cn1 [Compound 4.22, trans-4-((3-(2-Cyclopropyloxazol-4-yl)phenyl)((trans-4-(6-(dimethylamino)pyridine-3-yl)cyclohexyl)methyl)carbamoyl)cyclohexyl (2-hydroxyethyl)carbamate] | ≤ 0.25 µM
CCNC(=O)O[C@H]1CC[C@H](C(=O)N(C[C@H]2CC[C@H](c3ccc(OC)c(C)c3)CC2)c2cccc(-c3cnn(C4CC4)c3)c2)CC1 [Compound 3.01, trans-4-((3-(1-Cyclopropyl-1H-pyrazol-4-yl)phenyl)((trans-4-(4-methoxy-3-methylphenyl)cyclohexyl)methyl)carbamoyl)cyclohexyl ethylcarbamate] | ≤ 0.25 µM
COc1ccc([C@H]2CC[C@H](CN(c3cccc(-c4cnc(C5CC5)s4)c3)C(=O)[C@H]3CC[C@H](NC(=O)CNS(C)(=O)=O)CC3)CC2)cc1C [Compound 30.06, trans-N-(3-(2-Cyclopropylthiazol-5-yl)phenyl)-N-((trans-4-(4-methoxy-3-methylphenyl)cyclohexyl)methyl)-4-(2-(methylsulfonamido)acetamido) cyclohexanecarboxamide] | ≤ 0.25 µM
COc1ccc([C@H]2CC[C@H](CN(c3cccc(-c4cnc(C5CC5)s4)c3)C(=O)[C@H]3CC[C@H](CC(=O)O)CC3)CC2)nc1C#N [Compound 20.01, 2-(trans-4-(((trans-4-(6-Cyano-5-methoxypyridin-2-yl)cyclohexyl)methyl)(3-(2-cyclopropylthiazol-5-yl)phenyl)carbamoyl)cyclohexyl) acetic acid] | ≤ 0.25 µM
COc1ncc(-c2cccc(N(C[C@H]3CC[C@H](c4ccc(OC)c(C)c4)CC3)C(=O)[C@H]3CC[C@H](OC(=O)N(C)C)CC3)c2)s1 [Compound 13, trans-4-(((trans-4-(4-Methoxy-3-methylphenyl)cyclohexyl)methyl)(3-(2-methoxythiazol-5-yl)phenyl)carbamoyl)cyclohexyl dimethylcarbamate] | ≤ 0.25 µM
COc1ccc([C@H]2CC[C@H](CN(c3cccc(-c4cnc(C5CC5)s4)c3)C(=O)[C@H]3CC[C@H](NC(=O)Cc4c[nH]cn4)CC3)CC2)cc1C [Compound 31.15, trans-4-(2-(1H-Imidazol-4-yl)acetamido)-N-(3-(2-cyclopropylthiazol-5-yl)phenyl)-N-((trans-4-(4-methoxy-3-methylphenyl)cyclohexyl)methyl) cyclohexanecarboxamide] | ≤ 0.25 µM
COc1ccc([C@H]2CC[C@H](CN(c3cccc(-c4cnc(C5CC5)s4)c3)C(=O)[C@H]3CC[C@H](OC(=O)N4CC(O)C4)CC3)CC2)nc1C [Compound 7.11, trans-4-((3-(2-Cyclopropylthiazol-5-yl)phenyl)((trans-4-(5-methoxy-6-methylpyridin-2-yl)cyclohexyl)methyl)carbamoyl)cyclohexyl 3-hydroxyazetidine-1-carboxylate] | ≤ 0.25 µM

Further lines, results first:

EC50 | Compound
≤ 0.25 µM | CNC(=O)O[C@H]1CC[C@H](C(=O)N(C[C@H]2CC[C@H](c3cnc(OC)c(C)c3)CC2)c2cc(-c3coc(C4CC4)n3)ccn2)CC1 [Compound 5.50, trans-4-((4-(2-Cyclopropyloxazol-4-yl)pyridine-2-yl)((trans-4-(6-methoxy-5-methylpyridin-3-yl)cyclohexyl)methyl)carbamoyl)cyclohexyl methylcarbamate]
≤ 0.25 µM | COc1ccc(C23CCC(CN(c4cccc(-c5cnn(C6CC6)c5)c4)C(=O)[C@H]4CC[C@H](OC(=O)N5CC(O)C5)CC4)(CC2)CC3)cc1C [Compound 7.12, 4-((3-(1-Cyclopropyl-1H-pyrazol-4-yl)phenyl)((4-(4-methoxy-3-methylphenyl)bicyclo[2.2.2]octan-1-yl)methyl)carbamoyl)cyclohexyl trans-3-hydroxyazetidine-1-carboxylate]
≤ 0.25 µM | COc1ccc([C@H]2CC[C@H](CN(c3cccc(-c4cnn(C5CC5)c4)c3)C(=O)[C@H]3CC[C@H](OC(=O)N4CC(CN(C)C)C4)CC3)CC2)cc1C [Compound 7.32, trans-4-((3-(1-Cyclopropyl-1H-pyrazol-4-yl)phenyl)((trans-4-(4-methoxy-3-methylphenyl)cyclohexyl)methyl)carbamoyl)cyclohexyl 3-((dimethylamino)methyl)azetidine-1-carboxylate]
≤ 0.25 µM | COc1ccc([C@H]2CC[C@H](CN(c3cc(-c4coc(C5CC5)n4)ccn3)C(=O)[C@H]3CC[C@H](OC(=O)N4CC(N(C)C)C4)CC3)CC2)cc1C [Compound 7.81, trans-4-((4-(2-Cyclopropyloxazol-4-yl)pyridine-2-yl)((trans-4-(4-methoxy-3-methylphenyl)cyclohexyl)methyl)carbamoyl)cyclohexyl 3-(dimethylamino)azetidine-1-carboxylate]
≤ 0.25 µM | CNC(=O)O[C@H]1CC[C@H](C(=O)N(C[C@H]2CC[C@H](c3ccc(OC)c(C#N)n3)CC2)c2cc(-c3coc(C4CC4)n3)ccn2)CC1 [Compound 5.44, trans-4-(((trans-4-(6-Cyano-5-methoxypyridin-2-yl)cyclohexyl)methyl)(4-(2-cyclopropyloxazol-4-yl)pyridine-2-yl)carbamoyl)cyclohexyl methylcarbamate]
0.25 to 1 µM | CCCOC(=O)[C@H]1CC[C@H](C(=O)N(C[C@H]2CC[C@H](c3ccc(OC)c(C)n3)CC2)c2cc(-c3cnn(C4CC4)c3)ccn2)CC1 [Compound 22.06, trans-Propyl 4-((4-(1-cyclopropyl-1H-pyrazol-4-yl)pyridin-2-yl)((trans-4-(5-methoxy-6-methylpyridin-2-yl)cyclohexyl)methyl)carbamoyl) cyclohexanecarboxylate]
≤ 0.25 µM | CCC1CN(C(=O)O[C@H]2CC[C@H](C(=O)N(C[C@H]3CC[C@H](c4ccc(OC)c(C)n4)CC3)c3cc(-c4coc(C(C)C)n4)ccn3)CC2)C1 [Compound 7.100, trans-4-((4-(2-Isopropyloxazol-4-yl)pyridine-2-yl)((trans-4-(5-methoxy-6-methylpyridin-2-yl)cyclohexyl)methyl)carbamoyl)cyclohexyl 3-ethylazetidine-1-carboxylate]
0.25 to 1 µM | COc1ccc([C@H]2CC[C@H](CN(c3cccc(-c4cnn(C5CC5)c4)c3)C(=O)[C@H]3CC[C@H](C(=O)NCCO)CC3)CC2)cc1C [Compound 23, trans-N^1-(3-(1-Cyclopropyl-1H-pyrazol-4-yl)phenyl)-N^4-(2-hydroxyethyl)-N^1-((trans-4-(4-methoxy-3-methylphenyl)cyclohexyl)methyl)cyclohexane-1,4-dicarboxamide]
≤ 0.25 µM | COc1ccc([C@H]2CC[C@H](CN(c3cc(-c4coc(C5CC5)n4)ccn3)C(=O)[C@H]3CC[C@H](C(=O)OC)CC3)CC2)nc1C [Compound 18.23, trans-Methyl 4-((4-(2-cyclopropyloxazol-4-yl)pyridin-2-yl) ((trans-4-(5-methoxy-6-methylpyridin-2-yl)cyclohexyl)methyl)carbamoyl) cyclohexanecarboxylate]
≤ 0.25 µM | CNC(=O)O[C@H]1CC[C@H](C(=O)N(C[C@H]2CC[C@H](c3ccc(OC)c(C)n3)CC2)c2cc(-c3coc(C4CC4)n3)ccn2)CC1 [Compound 5.34, trans-4-((4-(2-Cyclopropyloxazol-4-yl)pyridine-2-yl)((trans-4-(5-methoxy-6-methylpyridin-2-yl)cyclohexyl)methyl)carbamoyl)cyclohexyl methylcarbamate]
≤ 0.25 µM | COc1ccc([C@H]2CC[C@H](CN(c3cc(-c4cnc(C5CC5)s4)ccn3)C(=O)[C@H]3CC[C@H](OC(=O)N4CC(O)C4)CC3)CC2)nc1C#N [Compound 7.10, trans-4-(((trans-4-(6-Cyano-5-methoxypyridin-2-yl)cyclohexyl)methyl)(4-(2-cyclopropylthiazol-5-yl)pyridin-2-yl)carbamoyl)cyclohexyl 3-hydroxyazetidine-1-carboxylate]

Source: US20220089575A1, “FARNESOID X RECEPTOR AGONISTS AND USES THEREOF” (Metacrine, Inc., priority 2017, published 2022)
